Laboratory results as given in US10004701B2, “Methods and compositions for treating infection” (UNIVERSITY OF ROCHESTER, priority 2012, dated 2018).
Where a name gives a salt, the structure may show the parent alone. Read-outs that look alike come from different tables or passages of the source.

Columns and labels:
Experiment in all cases: AK assay 384-well format, Prestwick library screening
[1] = system: K. pneumoniae; type: cell-based, Klebsiella pneumoniae; conditions: 50 μM final drug concentration; for fold induction at 50 µM: Klebsiella pneumoniae, 3 h; for AK-based Prestwick Library Screening Results, K. pneumoniae (fold increase in extracellular AK activity): cutoff for positive 3-fold increase
[2] = system: E. cloacae; type: cell-based, Enterobacter cloacae; conditions: 50 μM final drug concentration; for fold induction at 50 µM: Enterobacter cloacae, 3 h; for AK-based Prestwick Library Screening Results, E. cloacae (fold increase in extracellular AK activity): cutoff for positive 3-fold increase
[3] = system: E. faecium; type: cell-based, Enterococcus faecium; conditions: 50 μM final drug concentration; for fold induction at 50 µM: Enterococcus faecium, 3 h; for AK-based Prestwick Library Screening Results, E. faecium (fold increase in extracellular AK activity): cutoff for positive 3-fold increase
[4] = system: E. coli; type: cell-based, Escherichia coli; conditions: 50 μM final drug concentration; for fold induction at 50 µM: Escherichia coli, 3 h; for AK-based Prestwick Library Screening Results, E. coli (fold increase in extracellular AK activity): cutoff for positive 3-fold increase
[5] = system: S. aureus strain USA300-0114; type: cell-based, Staphylococcus aureus; conditions: 50 μM final drug concentration; for fold induction at 50 µM: Staphylococcus aureus, USA300, 3 h; for AK-based Prestwick Library Screening Results, S. aureus (fold increase in extracellular AK activity): cutoff for positive 3-fold increase
[6] = system: A. baumannii strain 98-37-09; type: cell-based, Acinetobacter baumannii; conditions: 50 μM final drug concentration; for fold induction at 50 µM: Acinetobacter baumannii, 983709, 3 h; for AK-based Prestwick Library Screening Results, A. baumannii (fold increase in extracellular AK activity): cutoff for positive 3-fold increase
[7] = system: P. aeruginosa; type: cell-based, Pseudomonas aeruginosa; conditions: 50 μM final drug concentration; for fold induction at 50 µM: Pseudomonas aeruginosa, 3 h; for AK-based Prestwick Library Screening Results, P. aeruginosa (fold increase in extracellular AK activity): cutoff for positive 3-fold increase
[8] = planktonic, cutoff for positive-scoring molecules 3-fold increase, read-out: AK-based Prestwick Library Screening Results, K. pneumoniae (fold increase in extracellular AK activity)
[9] = planktonic, cutoff for positive-scoring molecules 3-fold increase, read-out: AK-based Prestwick Library Screening Results, E. cloacae (fold increase in extracellular AK activity)
[10] = planktonic, cutoff for positive-scoring molecules 3-fold increase, read-out: AK-based Prestwick Library Screening Results, E. faecium (fold increase in extracellular AK activity)
[11] = planktonic, cutoff for positive-scoring molecules 3-fold increase, read-out: AK-based Prestwick Library Screening Results, E. coli (fold increase in extracellular AK activity)
[12] = planktonic, cutoff for positive-scoring molecules 3-fold increase, read-out: AK-based Prestwick Library Screening Results, S. aureus (fold increase in extracellular AK activity)
[13] = planktonic, cutoff for positive-scoring molecules 3-fold increase, read-out: AK-based Prestwick Library Screening Results, A. baumannii (fold increase in extracellular AK activity)
[14] = planktonic, cutoff for positive-scoring molecules 3-fold increase, read-out: AK-based Prestwick Library Screening Results, P. aeruginosa (fold increase in extracellular AK activity)
[15] = cutoff for positive-scoring molecules 3-fold increase, read-out: AK-based Prestwick Library Screening Results, K. pneumoniae (fold increase in extracellular AK activity)
[16] = cutoff for positive-scoring molecules 3-fold increase, read-out: AK-based Prestwick Library Screening Results, E. cloacae (fold increase in extracellular AK activity)
[17] = cutoff for positive-scoring molecules 3-fold increase, read-out: AK-based Prestwick Library Screening Results, E. faecium (fold increase in extracellular AK activity)
[18] = cutoff for positive-scoring molecules 3-fold increase, read-out: AK-based Prestwick Library Screening Results, E. coli (fold increase in extracellular AK activity)
[19] = cutoff for positive-scoring molecules 3-fold increase, read-out: AK-based Prestwick Library Screening Results, S. aureus (fold increase in extracellular AK activity)
[20] = cutoff for positive-scoring molecules 3-fold increase, read-out: AK-based Prestwick Library Screening Results, A. baumannii (fold increase in extracellular AK activity)
[21] = cutoff for positive-scoring molecules 3-fold increase, read-out: AK-based Prestwick Library Screening Results, P. aeruginosa (fold increase in extracellular AK activity)

CC(=O)OC(C)C[N+](C)(C)C (stereo not shown) [Methacholine chloride]
fold induction at 50 µM [1, 8]: 0.7
fold induction at 50 µM [2, 9]: 1.3
fold induction at 50 µM [3, 10]: 0.9
fold induction at 50 µM [4, 11]: 0.9
fold induction at 50 µM [5, 12]: 0.7
fold induction at 50 µM [6, 13]: 0.8
fold induction at 50 µM [7, 14]: 0.9

C=C1c2cccc(O)c2C(=O)C2=C(O)[C@]3(O)C(=O)C(C(N)=O)=C(O)[C@@H](N(C)C)[C@@H]3[C@@H](O)[C@H]12 [Methacycline hydrochloride]
fold induction at 50 µM [1, 15]: 0.2
fold induction at 50 µM [2, 16]: 0.4
fold induction at 50 µM [3, 17]: 0.9
fold induction at 50 µM [4, 18]: 3.2
fold induction at 50 µM [5, 19]: 1.9
fold induction at 50 µM [6, 20]: 4.2
fold induction at 50 µM [7, 21]: 0.2

CC[N+](C)(CC)CCOC(=O)C1c2ccccc2Oc2ccccc21 [Methantheline bromide]
fold induction at 50 µM ([1]; planktonic K. pneumoniae, positive cutoff 3-fold increase, read-out: AK-based Prestwick library screening result, K. pneumoniae (fold increase in extracellular AK activity)): 0.8
fold induction at 50 µM ([2]; planktonic E. cloacae, positive cutoff 3-fold increase, read-out: AK-based Prestwick library screening result, E. cloacae (fold increase in extracellular AK activity)): 1.1
fold induction at 50 µM ([3]; planktonic E. faecium, positive cutoff 3-fold increase, read-out: AK-based Prestwick library screening result, E. faecium (fold increase in extracellular AK activity)): 0.9
fold induction at 50 µM ([4]; planktonic E. coli, positive cutoff 3-fold increase, read-out: AK-based Prestwick library screening result, E. coli (fold increase in extracellular AK activity)): 0.9
fold induction at 50 µM ([5]; planktonic S. aureus, positive cutoff 3-fold increase, read-out: AK-based Prestwick library screening result, S. aureus (fold increase in extracellular AK activity)): 0.7
fold induction at 50 µM ([6]; planktonic A. baumannii, positive cutoff 3-fold increase, read-out: AK-based Prestwick library screening result, A. baumannii (fold increase in extracellular AK activity)): 0.8
fold induction at 50 µM ([7]; planktonic P. aeruginosa, positive cutoff 3-fold increase, read-out: AK-based Prestwick library screening result, P. aeruginosa (fold increase in extracellular AK activity)): 0.9

CC(=O)/N=c1/sc(S(N)(=O)=O)nn1C [Methazolamide]
fold induction at 50 µM [1, 8]: 0.5
fold induction at 50 µM [2, 9]: 0.7
fold induction at 50 µM [3, 10]: 1.5
fold induction at 50 µM [4, 11]: 0.5
fold induction at 50 µM [5, 12]: 0.6
fold induction at 50 µM [6, 13]: 0.5
fold induction at 50 µM [7, 14]: 0.6

COC(=O)Nc1nc2ccc(SC(C)C)cc2[nH]1 [Methiazole]
AK-based Prestwick library screening result, K. pneumoniae (fold increase in extracellular AK activity) ([1]; planktonic K. pneumoniae, positive cutoff 3-fold increase): 0.4
AK-based Prestwick library screening result, E. cloacae (fold increase in extracellular AK activity) ([2]; planktonic E. cloacae, positive cutoff 3-fold increase): 1.3
AK-based Prestwick library screening result, E. faecium (fold increase in extracellular AK activity) ([3]; planktonic E. faecium, positive cutoff 3-fold increase): 0.5
AK-based Prestwick library screening result, E. coli (fold increase in extracellular AK activity) ([4]; planktonic E. coli, […]): 0.4
AK-based Prestwick library screening result, S. aureus (fold increase in extracellular AK activity) ([5]; planktonic S. aureus, positive cutoff 3-fold increase): 1.3
AK-based Prestwick library screening result, A. baumannii (fold increase in extracellular AK activity) ([6]; planktonic A. baumannii, positive cutoff 3-fold increase): 0.5
AK-based Prestwick library screening result, P. aeruginosa (fold increase in extracellular AK activity) ([7]; planktonic P. aeruginosa, positive cutoff 3-fold increase): 0.5

Cn1cc[nH]c1=S [Methimazole]
fold induction at 50 µM [1, 15]: 1
fold induction at 50 µM [2, 16]: 27.1
fold induction at 50 µM [3, 17]: 0.9
fold induction at 50 µM [4, 18]: 1.2
fold induction at 50 µM [5, 19]: 1
fold induction at 50 µM [6, 20]: 1.4
fold induction at 50 µM [7, 21]: 1

CS(=N)(=O)CC[C@H](N)C(=O)O (stereo partly shown) [Methionine sulfoximine (L)]
AK-based Prestwick Library Screening Results, K. pneumoniae (fold increase in extracellular AK activity) ([1]; planktonic): 0.9
AK-based Prestwick Library Screening Results, E. cloacae (fold increase in extracellular AK activity) ([2]; planktonic): 1.5
AK-based Prestwick Library Screening Results, E. faecium (fold increase in extracellular AK activity) ([3]; planktonic): 1.0
AK-based Prestwick Library Screening Results, E. coli (fold increase in extracellular AK activity) ([4]; planktonic): 1.3
AK-based Prestwick Library Screening Results, S. aureus (fold increase in extracellular AK activity) ([5]; planktonic): 1.1
AK-based Prestwick Library Screening Results, A. baumannii (fold increase in extracellular AK activity) ([6]; planktonic): 1.0
AK-based Prestwick Library Screening Results, P. aeruginosa (fold increase in extracellular AK activity) ([7]; planktonic): 1.2

CSc1ccc2c(c1)C(N1CCN(C)CC1)Cc1ccccc1S2.O=C(O)/C=C\C(=O)O (stereo not shown) [Methiothepin maleate]
AK-based Prestwick Library Screening Results, K. pneumoniae (fold increase in extracellular AK activity) ([1]; planktonic): 1.3
AK-based Prestwick Library Screening Results, E. cloacae (fold increase in extracellular AK activity) ([2]; planktonic): 1.8
AK-based Prestwick Library Screening Results, E. faecium (fold increase in extracellular AK activity) ([3]; planktonic): 1.0
AK-based Prestwick Library Screening Results, E. coli (fold increase in extracellular AK activity) ([4]; planktonic): 1.4
AK-based Prestwick Library Screening Results, S. aureus (fold increase in extracellular AK activity) ([5]; planktonic): 1.3
AK-based Prestwick Library Screening Results, A. baumannii (fold increase in extracellular AK activity) ([6]; planktonic): 1.5
AK-based Prestwick Library Screening Results, P. aeruginosa (fold increase in extracellular AK activity) ([7]; planktonic): 1.1

COc1ccccc1OCC(O)COC(N)=O (stereo not shown) [Methocarbamol]
fold induction at 50 µM ([1]; 384-well format, cutoff for positive-scoring molecules 3-fold increase, read-out: AK-based Prestwick Library Screening Results, K. pneumoniae (increase in extracellular AK activity)): 0.6
fold induction at 50 µM ([2]; 384-well format, cutoff for positive-scoring molecules 3-fold increase, read-out: AK-based Prestwick Library Screening Results, E. cloacae (increase in extracellular AK activity)): 1
fold induction at 50 µM ([3]; 384-well format, cutoff for positive-scoring molecules 3-fold increase, read-out: AK-based Prestwick Library Screening Results, E. faecium (increase in extracellular AK activity)): 0.9
fold induction at 50 µM ([4]; 384-well format, cutoff for positive-scoring molecules 3-fold increase, read-out: AK-based Prestwick Library Screening Results, E. coli (increase in extracellular AK activity)): 0.9
fold induction at 50 µM ([5]; 384-well format, cutoff for positive-scoring molecules 3-fold increase, read-out: AK-based Prestwick Library Screening Results, S. aureus (increase in extracellular AK activity)): 0.8
fold induction at 50 µM ([6]; 384-well format, cutoff for positive-scoring molecules 3-fold increase, read-out: AK-based Prestwick Library Screening Results, A. baumannii (increase in extracellular AK activity)): 0.9
fold induction at 50 µM ([7]; 384-well format, cutoff for positive-scoring molecules 3-fold increase, read-out: AK-based Prestwick Library Screening Results, P. aeruginosa (increase in extracellular AK activity)): 0.9

CN(Cc1cnc2nc(N)nc(N)c2n1)c1ccc(C(=O)N[C@@H](CCC(=O)O)C(=O)O)cc1 [Methotrexate]
fold induction at 50 µM ([1]; planktonic K. pneumoniae, 384-well, cutoff for positive-scoring molecules 3-fold increase, read-out: AK-based Prestwick Library Screening Results: K. pneumoniae (increase in extracellular AK activity)): 0.8
fold induction at 50 µM ([2]; planktonic E. cloacae, 384-well, cutoff for positive-scoring molecules 3-fold increase, read-out: AK-based Prestwick Library Screening Results: E. cloacae (increase in extracellular AK activity)): 1.3
fold induction at 50 µM ([3]; planktonic E. faecium, 384-well, cutoff for positive-scoring molecules 3-fold increase, read-out: AK-based Prestwick Library Screening Results: E. faecium (increase in extracellular AK activity)): 0.8
fold induction at 50 µM ([4]; planktonic E. coli, 384-well, […], read-out: AK-based Prestwick Library Screening Results: E. coli (increase in extracellular AK activity)): 1.1
fold induction at 50 µM ([5]; planktonic S. aureus, 384-well, cutoff for positive-scoring molecules 3-fold increase, read-out: AK-based Prestwick Library Screening Results: S. aureus (increase in extracellular AK activity)): 0.9
fold induction at 50 µM ([6]; planktonic A. baumannii, 384-well, cutoff for positive-scoring molecules 3-fold increase, read-out: AK-based Prestwick Library Screening Results: A. baumannii (increase in extracellular AK activity)): 1
fold induction at 50 µM ([7]; planktonic P. aeruginosa, 384-well, cutoff for positive-scoring molecules 3-fold increase, read-out: AK-based Prestwick Library Screening Results: P. aeruginosa (increase in extracellular AK activity)): 1
